Assay results reported in patent publication US20220142897A1, “Formulation and Use Thereof in the Treatment of Keratosis Pilaris” (priority 2020, published 2022).

How the values were obtained:
sebaceous glands [1] = settings: cited from earlier work
sebaceous glands [2] = experiment: Stimulation of sebaceous glands / sebum production by topical DHEA; format: in vivo, human
Excerpt: The main component of the current invention is DHEA, a steroid hormone. Without being bound by theory, it is hypothesized that DHEA in the current invention serves to simulate the production of sebaceous glands. […] In contrast, the upper limits of DHEA in the current invention can be as high as 100%.
Daily applications of DHEA can increase the output of sebaceous glands by up to 60% within 3 months. This makes DHEA a particularly viable and effective treatment for increasing sebum output in those with KP. Patients with KP typically have widespread sebaceous gland atrophy in the affected areas of the skin, causing downstream symptoms of skin dryness, inflammation, and could potentially be the root cause of the keratin papules that develop. DHEA also is suspected to help modulate and regulate keratinocyte proliferation. It is suspected that by regulating keratinocytes in the follicular channel, the rate at which keratin blockages forms is reduced.

SMILES | increase of the output of sebaceous glands (sebaceous glands [1]; daily applications, within 3 months) | safety of continuous topical application (sebaceous glands [1]; low concentrations to avoid systemic circulation) | sebum production as observed by softness and oiliness (sebaceous glands [2]; 2% DHEA) | sebum production as observed by softness and oiliness (sebaceous glands [2]; DHEA reduced to approximately 0.1%) | stimulation of the sebaceous glands (sebaceous glands [2]; concentrations of DHEA at less than 0.1%, clinical studies) | potency to stimulate sebaceous gland to produce sebocytes (sebaceous glands [1]; relative to DHEA)
C[C@]12CC[C@H](O)CC1=CC[C@@H]1[C@@H]2CC[C@]2(C)C(=O)CC[C@@H]12 [DHEA, dehydroepiandrosterone] | up to 60% | safe | increase in sebum production | Such phenotypes are observed | ineffective | –
C[C@]12CCC(=O)C[C@@H]1CC[C@@H]1[C@@H]2CC[C@]2(C)[C@@H](O)CC[C@@H]12 [DHT, dihydrotestosterone] | – | – | – | – | – | more potent than DHEA
